Test [1] in a line: In vivo localization capacities at 24 hr post injection in a mouse C6 intracerebral glioma model and the tumor; normal brain ratio was calculated. It counts as functional.
Test [2] in a line: In vivo localization capacities at 6 hr post injection in a mouse C6 intracerebral glioma model and the tumor; normal brain ratio was calculated. It counts as functional.

In the case of `CCOC(C)C1=C(C)c2cc3[nH]c(cc4[nH]c(cc5nc(cc1n2)C(C)=C5C(C)OCC)c(C)c4CCC(=O)O)c(CCC(=O)O)c3C` (stereo not given), the figures for the Ratio in test [1] and in test [2] were 8.7 and 17.5, respectively.
Turning to `CCOCCOC(C)C1=C(C)c2cc3[nH]c(cc4[nH]c(cc5nc(cc1n2)C(C)=C5C(C)OCCOCC)c(C)c4CCC(=O)NCCN(C)C)c(CCC(=O)NCCN(C)C)c3C` (stereo not given), the Ratio in test [1] was 8; in test [2] it was 15.2.
For `CC1=C(C(C)SCC(=O)O)c2cc3nc(cc4[nH]c(cc5[nH]c(cc1n2)c(C)c5CCC(=O)O)c(CCC(=O)O)c4C)C(C(C)SCC(=O)O)=C3C` (stereo not given), the Ratio is 28.2 in test [1] and 23 in test [2].
Taken in the same sequence, the figures for `CCOC(C)C1=C(C)c2cc3[nH]c(cc4[nH]c(cc5nc(cc1n2)C(C)=C5C(C)OCC)c(C)c4CCC(=O)NCCN(C)C)c(CCC(=O)NCCN(C)C)c3C` (stereo not given) were 6.4 and 2.4.
As to `CCOCCOC(C)C1=C(C)c2cc3[nH]c(cc4[nH]c(cc5nc(cc1n2)C(C)=C5C(C)OCCOCC)c(C)c4CCC(=O)O)c(CCC(=O)O)c3C` (stereo not given), the Ratio in test [1] is on record as 25.1; in test [2], 37.7.

(Values after ChEMBL document CHEMBL1126231, “Synthesis and phototoxicity of a series of haematoporphyrin analogues” (1992).)
